Source: US20230076792A1, “SEQUENTIAL TARGETING IN CROSSLINKING NANO-THERANOSTICS FOR TREATING BRAIN TUMORS” (The Regents of the University of California, priority 2019, published 2023)

Experiments:
[1] = In vitro drug release profile (dialysis, pH 7.4 then pH 6.5); format: physicochemical; conditions: pH 7.4 PBS
Protocol: Drug release profile. STICK-NP@Cy@Gd was prepared to evaluate the in vitro release profile using dialysis cassettes (Pierce Chemical Inc.) with a 3 kDa MWCO. To make an ideal sink condition, 10 g charcoal was added in the release medium. The cassettes were dialyzed against PBS (pH7.4) at room temperature. The PBS at pH 7.4 was replaced with fresh PBS at pH 6.5 at 4 h. The concentration of CY7.5 and Gd-DTPA remaining in the dialysis cassette at various time points was measured by UV-vis spectroscopy and ICP-MS.

DIPG (PDX) cells = assay: Anti-cancer efficacy in orthotopic PDX DIPG mouse model; format: in vivo, SCID mouse
Protocol: Anti-cancer efficacy study in orthotopic brain tumor models. […] After confirming the establishment of brain tumors, mice were randomly assigned into different groups. Tumor size was monitored using advanced T1-weight imaging (TR/TE=300 ms/15 ms). For imaging study, mice were injected with 250 mg/kg Gd-DTPA. Tumor size of DIPG model was calculated from the aggregation of tumor area in different MRI slices, 1 mm thick. Tumor size of GBM model was calculated as the followed equation: […]
where W is the width of the tumor and the L is the length of the tumor (W<L). One mouse per group was sacrificed on day 12 after MRI imaging, and organs and brain with tumors were harvested for histopathology evaluation. Animals were continuously monitored their appearance, behavior, and body weight. Once the body weight loss>20%, animals were considered as reaching the humane endpoint.

[2] = Pharmacokinetic study in jugular vein catheterized rats; format: in vivo; conditions: Cy7.5 10 mg/kg, serum
Protocol: FIGS. 2A and 2B show cumulative release profile for both hydrophilic (Gd-DTPA) (FIG. 2A) and hydrophobic (Cy7.5) payloads (FIG. 2B) from STICK-NPs and NM in the presence of different pH. A mixture of NM and free Gd was used in (FIG. 2A), as Gd could not be loaded into NM. Drug release study was performed initially at pH 7.4 PBS (grey areas) and was then subjected to pH 6.5 after 4 h (pink areas). Samples were collected at different time points and were measured by inductively coupled plasma mass spectrometry (ICP-MS) for Gd-DTPA level and fluorescence spectrometer for the concentration of Cy7.5. (n=3). […] (n=3) FIG. 2E show the intensity-weighted distribution changes of STICK-NPs in the presence of different concentrations of glucose (mmol/L). Of note, normal human serum glucose level ranges from 3.9 to 5.5 mmol/L. FIG. 2F show pharmacokinetic profiles of free Cy7.5, STICK-NP@Cy, and NM@Cy (Cy7.5, 10 mg/kg) in jugular vein catheterized rats (n=3). Serum was collected at different time points, and drug concentrations were measured based on fluorescence signals. The error bars were the standard deviation (SD).

U87-MG cells = assay: Cellular uptake assay in brain tumor cells; format: cell-based, human; conditions: pH 6.5 versus pH 7.4, Cy7.5 0.1 mg/mL
Protocol: To study the cellular uptake of STICK-NP@Cy, the bEnd.3 cells or U87-MG cells were seeded on 8-well chamber slides (10000 cells/well) and treated with STICK-NP@Cy and other controls (0.1 mg/mL Cy7.5) for 1 hour and washed by PBS three times. Cells were then fixed and stained with DAPI. Cell imaging was acquired using a Keyence fluorescence microscope. For quantitative study, bEnd.3 cells or U87-MG cells (10000 cells/well) were seeded in 96 well plate for overnight and then treated the cells with STICK-NP@Cy and other controls (0.1 mg/mL Cy7.5). Cells were harvested at 0 h, 1 h, 2 h, 3 h, and 4 h and washed with PBS. Total cells were lysed with 100 μL DMSO and the fluorescence intensity was measured by fluorescence spectrophotometer (RF-6000, Shimazu, Japan). To inhibit GLUT1 activity, bEnd.3 cells were pretreated with 40 μM of WZB-117 for 24 h before incubation with STICK-NP@Cy. For the tumor uptake study, U87-MG cells were pretreated with 40 μM of AZT for 24 h to alter the expression of surface sialic acid. To block the interaction, U87-MG cells were pre-incubated with excess free CBA (80 μM) for 24 h to compete for the binding sites with STICK-NP@Cy (pH 6.5) through the CBA targeting moiety in the secondary smaller micelles.

Compound: CNC[C@H](O)[C@@H](O)[C@H](O)[C@H](O)CO.CNC[C@H](O)[C@@H](O)[C@H](O)[C@H](O)CO.O=C([O-])CN(CCN(CC(=O)[O-])CC(=O)O)CCN(CC(=O)[O-])CC(=O)O.[Gd+3] [free Gd-DTPA, gadopentetic acid]
- Release of Gd-DTPA [1]: released immediately

Compound: CC[C@]1(O)C[C@H]2CN(CCc3c([nH]c4ccccc34)[C@@](C(=O)OC)(c3cc4c(cc3OC)N(C=O)[C@H]3[C@@](O)(C(=O)OC)[C@H](OC(C)=O)[C@]5(CC)C=CCN6CC[C@]43[C@@H]65)C2)C1 [free VCR, vincristine]
- Effect on tumor growth (DIPG (PDX) cells; MRI, compared to PBS control): minimal inhibition effects
- Extension of survival compared to PBS control (DIPG (PDX) cells; mouse, in vivo): failed to extend the survival
- Survival of mice beyond day 12 (DIPG (PDX) cells; mouse, in vivo): died after day 12

Compound: cyanine 7.5 [Free Cy]
- AUC(0-∞) [2]: 51400 ± 13400 ng·h/mL
- Cmax [2]: 4190 ± 400 ng/mL
- Vz [2]: 2.46 ± 0.51 L/kg
- t1/2z [2]: 16.92 ± 0.78 h
- U87-MG cell uptake after pretreatment with pH 6.5 (U87-MG cells): no significant enhancement
